Laboratory results from US12097174B2, “Methods and agents that enhance myogenic progenitor cell engraftment” (President and Fellows of Harvard College, priority 2018, dated 2024).
“Also recorded” adds a separate entry of the source.

Legend:
[1] = system: mouse satellite cells; test: RNA sequencing of treated mouse satellite cells; assay type: cell-based
Source text: (§1) To gain insight into the mechanisms through which LPA and NFA treatment might enhance donor cell engraftment in vertebrate muscle, RNA sequencing analysis were next performed in treated ZeMPCs and in mouse satellite cells. Comparison of differential gene expression in NFA-treated or LPA-treated cells to vehicle-treated cells indicated upregulation of calcium-dependent genes in response to these compounds in both ZeMPCs (FIG. 21) and mouse satellite cells (FIGS. 15A and 15B).
(§2) Isolated mouse muscle satellite cells and ZeMPCs were used to prepare RNA after in vitro chemical treatment. Total RNA was isolated by the micro RNeasy kit (QIAGEN). cDNA was prepared using SMART Seq v4 Ultra Low RNA-Seq kit for 48 reactions (Takara) and a Nextera kit was used for library construction. Sequencing data FASTQ files for samples were processed in tophat-cufflinks workflow in a Linux server operating system to output gene-level abundance estimates and statistical inference as gene-level raw counts. Those raw counts for samples were input into the cuffdiff for differential gene expression analysis. The assigned GEO accession number for the RNA sequencing data is GSE143801.

[2] = system: Zebrafish myogenic progenitor cells (ZeMPCs); test: Limiting dilution engraftment assay (ELDA): cells treated ex vivo, transplanted into adult zebrafish, imaged at 7 dpt; assay type: in vivo; conditions: for engraftment efficiency compared with DMSO/vehicle-treated cells: 0.1 μM LPA or 0.3 μM NFA; for engraftment efficiency relative to vehicle-treated controls: 5 μM LPA or 10 μM NFA; for engraftment capacity of transplanted myogenic progenitors in recipient adult zebrafish: 4 hour ex vivo chemical exposure, replicate transplantation
Method: Donor cells were derived from embryos that contained a GFP cassette driven by the promoter for mylz2, a muscle-specific structural protein. Recipients were optically clear, immunocompromised adult prkdc−/− zebrafish. To perform a limiting dilution assay, three doses (n=100, 200, and 400 cells) were administered per treatment (n=10 engraftment events per treatment-dose combination). The estimated engrafting cell frequency was calculated using the Extreme Limiting Dilution Analysis (ELDA, Hu et. al. 2009), which provides the most likely estimate (MLE) of engrafting cell frequency.
Given that this group of 230 lipids is too many to be examined in mice, transplantation efficiency was instead examined via limit-dilution assays in 15 recipient zebrafish per compound after a brief (4 hour) ex vivo chemical exposure. Positive hits from this primary screening were rescreened in replicate transplantation experiments incorporating dose response testing.
Lipids are frequently found to enhance cell migration and homeostasis in blood and muscle tissue (Cencetti et al., 2014; Lahvic et al., 2018; Li et al., 2015; Oh et al., 2016), and so it was elected to screen mainly bioactive lipids in efforts to identify compounds that enhance ZeMPCs engraftment efficiency in vivo. Myogenic progenitor cells were treated for 4 hours with one of the 188 unique lipid compounds contained in the ICCB Known Bioactives Library. Compound-treated cells were then harvested and transplanted intramuscularly into both flanks of 5 different casper recipient fish, with transplants performed at each of 3 transplanted cell doses (25, 75 or 150 cells). In these studies, recipient fish received split-dose irradiation of 15 Gy at 2 days and 1 day prior to transplantation to suppress any immune responses to the transplanted cells. Engraftment efficiency was measured by imaging casper recipients at 7 dpt (FIG. 18A). […] For this secondary screening approach, cells were transplanted into prkdc^D3612ls casper fish, which are deficient in mature T and B cells, and assayed engraftment efficiency in the recipient fish 7 days post-transplantation. Two compounds were identified, lysophosphatidic acid (LPA) and niflumic acid (NFA), which increased ZeMPC engraftment efficiency in both of these assay systems (FIG. 12B).
Lipids from the ICCB Known Bioactives Library (enzolifesciences.com/BML-2840/iccb-known-bioactives-library) were diluted at a 1:100 ratio in transplantation media (zESC medium without bFGF and FBS) and added to prewashed in vitro expanded muscle cells. NFA (Cayman and Santa Cruz Biotechnology) and LPA (Cayman and Santa Cruz Biotechnology) were used for the secondary confirmation screening experiments. […] 4- to 8-month-old casper recipients received split-dose irradiation of 15 Gy each, either 2 days or 1 day before transplantation. For LDA screening, cells were transplanted into each side of 5 pre-irradiated casper recipient fish or 5 non-irradiated prkdc-mutant recipient zebrafish. At 7 dpt, the recipients were anaesthetized using a previously described method (Dang et al., 2016) and imaged using a fluorescent stereo microscope (Leica M165 FC). Successful engraftment was defined as the presence of GFP+ fibers. Variation in different experiments is caused by inherent variability in the in vitro ZeMPC derivation procedure, which results in differences in engrafting cell frequency across different derivation attempts. To mitigate the impact of such experimental variation on screening results, only LDA results for cells derived from the same cultures were compared. Comparison to a vehicle-treated experimental control was included in every transplantation experiment. Next, the chemical treated cell potency and vehicle-treated cell potency was measured using the Extreme Limiting Dilution Analysis (ELDA) software (Hu and Smyth, 2009). The ratio of the treated cell potency and vehicle-treated cell potency determine the engraftment efficiency fold increase value.

[3] = system: ZeMPCs; test: RNA sequencing of treated ZeMPCs; assay type: cell-based, zebrafish
Source text: as §1, §2

| Molecule | expression of calcium-dependent genes vs vehicle-treated cells [1] | expression of myoblast fusion related genes, including myomaker (Tmem8c) and Ccl8 [1] | engraftment efficiency compared with DMSO/vehicle-treated cells [2] | engraftment efficiency compared with DMSO treated cells ([2]; 0.3 uM LPA) | engraftment efficiency relative to vehicle-treated controls [2] [times] | engraftment efficiency compared with DMSO treated cells ([2]; 15 uM NFA or 4 uM LPA) | engraftment capacity of transplanted myogenic progenitors in recipient adult zebrafish [2] | engraftment efficiency relative to DMSO-treated cells ([2]; ZeMPCs treated for 1 hour) | engraftment efficiency relative to DMSO-treated cells ([2]; ZeMPCs treated for 2 hours) [times] | engraftment efficiency relative to DMSO-treated cells ([2]; ZeMPCs treated for 4 hours) [times] | expression of calcium-dependent genes vs vehicle-treated cells [3] |
| --- | --- | --- | --- | --- | --- | --- | --- | --- | --- | --- | --- |
| lysophosphatidic acid [LPA] | upregulation | upregulated | did not change the engraftment efficiency; also recorded: did not alter the engraftment efficiency; also recorded: did not result in any change | did not change the engraftment efficiency | 2.34 | increased engraftment efficiency | increasing the engraftment capacity | 1.11 times | 1.72 | 2.3 | upregulation |
| O=C(O)c1cccnc1Nc1cccc(C(F)(F)F)c1 [NFA, niflumic acid] | upregulation | – | did not change the engraftment efficiency; also recorded: did not alter the engraftment efficiency; also recorded: no difference | – | 2.37 | increased engraftment efficiency | increasing the engraftment capacity | did not alter | 2.85 | 2.64 | upregulation |
